Measured values: patent US12215129B2, “Antibacterial cyclopeptides targeting acinetobacter and other gram-negative pathogens” (priority 2020, dated 2025)
Several values for one entry are separate records, joined by “and”; a condition that tells them apart may be missing. Equal entries are not always repeated. Where two headings read alike, the source gives them in different places. Marks after values point to notes of the source that are not given here.

Columns and labels:
[1] = human, in vivo; cited from earlier work
A. baumannii ATCC 17978 = assay: Thigh infection neutropenic mouse model, efficacy (CFU/thigh); format: in vivo, Acinetobacter baumannii; conditions: 30 mg/kg SC, BID, q12h
[2] = tested on: Acinetobacter baumannii (ATCC 19606)
[3] = tested on: clinical A. baumannii complex isolates

CCCCCCCCCC(=O)N[C@@H](Cc1c[nH]c2ccccc12)C(=O)N[C@H](CC(N)=O)C(=O)N[C@@H](CC(=O)O)C(=O)N[C@@H]1C(=O)NCC(=O)N[C@@H](CCCN)C(=O)N[C@@H](CC(=O)O)C(=O)N[C@H](C)C(=O)N[C@@H](CC(=O)O)C(=O)NCC(=O)N[C@H](CO)C(=O)N[C@@H]([C@H](C)CC(=O)O)C(=O)N[C@@H](CC(=O)c2ccccc2N)C(=O)O[C@@H]1C [Daptomycin]
Half Life [1]: ~8 h
Vss [1]: ~0.1 L/kg
clearance [1]: ~0.15 mL/min/kg

Colistin [reference compound]
Decrease (%) (A. baumannii ATCC 17978; 26 h, decrease in counts compared to the vehicle group): 100%
Δ (A. baumannii ATCC 17978; 26 h, difference in bacterial counts relative to the baseline group (2 h initial counts)): −2.73^#
CFU/thigh Time post inoculation 2, 26 h (A. baumannii ATCC 17978; 26 h, individual animals): 1.77 × 10^3 CFU/thigh and 5.73 × 10^3 CFU/thigh and 5.64 × 10^3 CFU/thigh and 1.98 × 10^3 CFU/thigh and 3.57 × 10^3 CFU/thigh
Log (CFU/thigh) Time post inoculation 2, 26 h (A. baumannii ATCC 17978; 26 h, individual animals): 3.25 Log (CFU/thigh) and 3.76 Log (CFU/thigh) and 3.75 Log (CFU/thigh) and 3.30 Log (CFU/thigh) and 3.55 Log (CFU/thigh)
CFU/thigh Time post inoculation 2, 26 h, Mean (A. baumannii ATCC 17978; 26 h, mean of 5 animals): 3.74 × 10^3 CFU/thigh
Log (CFU/thigh) Time post inoculation 2, 26 h, Mean (A. baumannii ATCC 17978; 26 h, mean of 5 animals): 3.52* Log (CFU/thigh)
Dilution (CFU/plate) 0 (A. baumannii ATCC 17978; raw data, dilution 0, individual animals): 59 CFU/plate and 191 CFU/plate and 188 CFU/plate and 66 CFU/plate and 119 CFU/plate
Dilution (CFU/plate) 10^1 (A. baumannii ATCC 17978; raw data, dilution 10^1, individual animals): 3 CFU/plate and 20 CFU/plate and 21 CFU/plate and 8 CFU/plate and 13 CFU/plate
Dilution (CFU/plate) 10^2 (A. baumannii ATCC 17978; raw data, dilution 10^2, individual animals): 0 CFU/plate (3×) and 1 CFU/plate (2×)
Dilution (CFU/plate) 10^3 (A. baumannii ATCC 17978; raw data, dilution 10^3, individual animals): 0 CFU/plate
MIC [2]: 2 µg/mL
MIC ([3]; ARUP ABC 1): 4 µg/mL
MIC ([3]; ARUP ABC 2): 4 µg/mL
MIC ([3]; ARUP ABC 3): >32 µg/mL
MIC ([3]; CDC AB282): 1 µg/mL
MIC ([3]; CDC AB286): 1 µg/mL
MIC ([3]; CDC AB299): 2 µg/mL
MIC ([3]; CDC AB302): 2 µg/mL
MIC ([3]; CDC AB303): >32 µg/mL
MIC ([3]; CDC AB307): 8 µg/mL
